{"source": "PubChem BioAssay AID2060612", "about": "(Molecular Pharmacology Branch, DTP, NCI, 2025)", "tested_on": "565232-114-T-J1-PDC complex spheroid viability", "experiment": "Anticancer human tumor 565232-114-T-J1-PDC patient-derived bladder carcinoma cell line growth inhibition [CLK]", "conditions": "for IC50: curve of first compound; for viability, T/C: stronger effect = lower value", "how_it_was_run": "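Patient-derived tumor cells grown as complex spheroids with HUVEC endothelial cells and mesenchymal stem cells, treated with drug combinations. Concentrations descend in half-log steps from near clinical Cmax, or from 10 microM if Cmax unknown.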", "data": [{"compound": "CC(C)CC(NC(=O)C(Cc1ccccc1)NC(=O)c1cnccn1)B(O)O", "note": "(configuration not stated) + CNC(=O)c1ccc(Nc2nc(OC3CCCC3)c3c(-c4ccc5nc(C)oc5c4)c[nH]c3n2)c(OC)c1;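 further: spheroids exposed to compounds for 7 days before readout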;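 on viability, T/C: 100% = DMSO vehicle wells with luminescence normalized to vehicle control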", "values": [{"measurement": "IC50", "setting": "second compound 0.0316 µM", "result": 4660, "unit": "pM"}, {"measurement": "IC50", "setting": "second compound 0.1 µM", "result": 1010, "unit": "pM"}, {"measurement": "IC50", "setting": "second compound 0.316 µM", "result": "< 949", "unit": "pM"}, {"measurement": "IC50", "setting": "second compound 1 µM", "result": "< 949", "unit": "pM"}, {"measurement": "IC50", "setting": "second compound 3.16 µM", "result": "< 949", "unit": "pM"}, {"measurement": "IC50", "setting": "second compound 10 µM", "result": "< 949", "unit": "pM"}, {"measurement": "viability, T/C", "setting": "second compound 0.0316 µM, first compound 0.000949 µM", "result": 81, "unit": "%"}, {"measurement": "viability, T/C", "setting": "second compound 0.0316 µM, first compound 0.003 µM", "result": 80.1, "unit": "%"}, {"measurement": "viability, T/C", "setting": "second compound 0.0316 µM, first compound 0.00949 µM", "result": 1.47, "unit": "%"}, {"measurement": "viability, T/C", "setting": "second compound 0.0316 µM, first compound 0.03 µM", "result": 0.95, "unit": "%"}, {"measurement": "viability, T/C", "setting": "second compound 0.0316 µM, first compound 0.0949 µM", "result": 0.67, "unit": "%"}, {"measurement": "viability, T/C", "setting": "second compound 0.0316 µM, first compound 0.3 µM", "result": 1.42, "unit": "%"}, {"measurement": "viability, T/C", "setting": "second compound 0.1 µM, first compound 0.000949 µM", "result": 50.7, "unit": "%"}, {"measurement": "viability, T/C", "setting": "second compound 0.1 µM, first compound 0.003 µM", "result": 42.4, "unit": "%"}, {"measurement": "viability, T/C", "setting": "second compound 0.1 µM, first compound 0.00949 µM", "result": 1.02, "unit": "%"}, {"measurement": "viability, T/C", "setting": "second compound 0.1 µM, first compound 0.03 µM", "result": 0.74, "unit": "%"}, {"measurement": "viability, T/C", "setting": "second compound 0.1 µM, first compound 0.0949 µM", "result": 0.79, "unit": "%"}, {"measurement": "viability, T/C", "setting": "second compound 0.1 µM, first compound 0.3 µM", "result": 0.53, "unit": "%"}, {"measurement": "viability, T/C", "setting": "second compound 0.316 µM, first compound 0.000949 µM", "result": 31.1, "unit": "%"}, {"measurement": "viability, T/C", "setting": "second compound 0.316 µM, first compound 0.003 µM", "result": 24.6, "unit": "%"}, {"measurement": "viability, T/C", "setting": "second compound 0.316 µM, first compound 0.00949 µM", "result": 0.97, "unit": "%"}, {"measurement": "viability, T/C", "setting": "second compound 0.316 µM, first compound 0.03 µM", "result": 0.75, "unit": "%"}, {"measurement": "viability, T/C", "setting": "second compound 0.316 µM, first compound 0.0949 µM", "result": 3.5, "unit": "%"}, {"measurement": "viability, T/C", "setting": "second compound 0.316 µM, first compound 0.3 µM", "result": 0.65, "unit": "%"}, {"measurement": "viability, T/C", "setting": "second compound 1 µM, first compound 0.000949 µM", "result": 22.1, "unit": "%"}, {"measurement": "viability, T/C", "setting": "second compound 1 µM, first compound 0.003 µM", "result": 23.1, "unit": "%"}, {"measurement": "viability, T/C", "setting": "second compound 1 µM, first compound 0.00949 µM", "result": 0.93, "unit": "%"}, {"measurement": "viability, T/C", "setting": "second compound 1 µM, first compound 0.03 µM", "result": 0.66, "unit": "%"}, {"measurement": "viability, T/C", "setting": "second compound 1 µM, first compound 0.0949 µM", "result": 0.67, "unit": "%"}, {"measurement": "viability, T/C", "setting": "second compound 1 µM, first compound 0.3 µM", "result": 1.42, "unit": "%"}, {"measurement": "viability, T/C", "setting": "second compound 3.16 µM, first compound 0.000949 µM", "result": 19.6, "unit": "%"}, {"measurement": "viability, T/C", "setting": "second compound 3.16 µM, first compound 0.003 µM", "result": 12.3, "unit": "%"}, {"measurement": "viability, T/C", "setting": "second compound 3.16 µM, first compound 0.00949 µM", "result": 0.72, "unit": "%"}, {"measurement": "viability, T/C", "setting": "second compound 3.16 µM, first compound 0.03 µM", "result": 1.66, "unit": "%"}, {"measurement": "viability, T/C", "setting": "second compound 3.16 µM, first compound 0.0949 µM", "result": 0.65, "unit": "%"}, {"measurement": "viability, T/C", "setting": "second compound 3.16 µM, first compound 0.3 µM", "result": 1.37, "unit": "%"}, {"measurement": "viability, T/C", "setting": "second compound 10 µM, first compound 0.000949 µM", "result": 19.5, "unit": "%"}, {"measurement": "viability, T/C", "setting": "second compound 10 µM, first compound 0.003 µM", "result": 10.6, "unit": "%"}, {"measurement": "viability, T/C", "setting": "second compound 10 µM, first compound 0.00949 µM", "result": 1.82, "unit": "%"}, {"measurement": "viability, T/C", "setting": "second compound 10 µM, first compound 0.03 µM", "result": 0.61, "unit": "%"}, {"measurement": "viability, T/C", "setting": "second compound 10 µM, first compound 0.0949 µM", "result": 0.51, "unit": "%"}, {"measurement": "viability, T/C", "setting": "second compound 10 µM, first compound 0.3 µM", "result": 1.99, "unit": "%"}]}]}
